Key:
[1] = test system: advanced or metastatic solid tumor; test: Phase I study: anti-tumor activity in all tumor types; assay type: in vivo, human
[2] = test system: metastatic pancreatic cancer; test: Phase I study: anti-tumor activity in pancreatic cancer; assay type: in vivo, human
[3] = Phase I study (NCT03386526): safety and tolerability
Procedure: The Phase I dose escalation study included two parts.
Pembrolizumab was administered 200 mg IV on day 1 of a 21-day-cycle, until disease progression or untolerated toxicity.
The inclusion criteria for the Phase I study are: Age≥18 years; ECOG PS: 0-1;
Adequate hematologic, renal and liver functions; Advanced or metastatic solid tumor patients must be refractory to or intolerant of existing therapy(ies) known to provide clinical benefit for their condition.

## CN[C@@H](C)C(=O)N[C@H]1CN(S(=O)(=O)c2cccc(S(=O)(=O)N3CC[C@H]4CC[C@@H](C(=O)NC(c5ccccc5)c5ccccc5)N4C(=O)[C@@H](NC(=O)[C@H](C)NC)C3)c2)CC[C@H]2CC[C@@H](C(=O)NC(c3ccccc3)c3ccccc3)N2C1=O [APG-1387]
[1]
  DCR (disease control rate, SD above): 6/24
  ORR (objective response rate, CR + PR): 0
[1]; patients
  Best response: CR: 0
  Best response: PD: 15
  Best response: PR: 0
  Best response: SD: 6
[2]; 45 mg
  change of one mPC patient with confirmed SD: +6%
  treatment duration of one mPC patient with confirmed SD: > 9 cycles
[2]; pancreatic cancer
  DCR (disease control rate, SD above): 4/10
  ORR (objective response rate, CR + PR): 0
[2]; pancreatic cancer, patients
  Best response: CR: 0
  Best response: PD: 4
  Best response: PR: 0
  Best response: SD: 4
[3]; 60 mg monotherapy
  G3 above TRAEs: G3 blood bilirubin increased: one
  G3 above TRAEs: lipase increased: one
[3]; APG-1387 20 mg
  # of pts discontinued treatment: Adverse Event: 0
  # of pts discontinued treatment: Clinical progression: 0
  # of pts discontinued treatment: Disease progression: 2
  # of pts discontinued treatment: Lack of efficacy: 1
  TRAEs (all Grades): Aspartate aminotransferase increased, patients: 0
  TRAEs (all Grades): Bell's palsy, patients: 0
  TRAEs (all Grades): Blood bilirubin increased, patients: 0
  TRAEs (all Grades): Decreased appetite, patients: 0
  TRAEs (all Grades): Dehydration, patients: 0
  TRAEs (all Grades): Diarrhoea, patients: 0
  TRAEs (all Grades): Dyspepsia, patients: 0
  TRAEs (all Grades): Eructation, patients: 0
  TRAEs (all Grades): Fatigue, patients: 0
  TRAEs (all Grades): Headache, patients: 0
  TRAEs (all Grades): Lipase increased, patients: 0
  TRAEs (all Grades): Myalgia, patients: 0
  TRAEs (all Grades): Nausea, patients: 0
  TRAEs (all Grades): Peripheral sensory neuropathy, patients: 0
  TRAEs (all Grades): Phlebitis, % of patients: (33.3%)
  TRAEs (all Grades): Phlebitis, patients: 1
  TRAEs (all Grades): Pneumonitis, patients: 0
  TRAEs (all Grades): Pruritus, % of patients: (33.3%)
  TRAEs (all Grades): Pruritus, patients: 1
  TRAEs (all Grades): Rash maculo-papular, % of patients: (33.3%)
  TRAEs (all Grades): Rash maculo-papular, patients: 1
  TRAEs (all Grades): Tumor pain, patients: 0
[3]; APG-1387 30 mg
  # of pts discontinued treatment: Adverse Event: 0
  # of pts discontinued treatment: Clinical progression: 0
  # of pts discontinued treatment: Disease progression: 3
  # of pts discontinued treatment: Lack of efficacy: 0
  TRAEs (all Grades): Aspartate aminotransferase increased, patients: 0
  TRAEs (all Grades): Bell's palsy, patients: 0
  TRAEs (all Grades): Blood bilirubin increased, patients: 0
  TRAEs (all Grades): Decreased appetite, patients: 0
  TRAEs (all Grades): Dehydration, patients: 0
  TRAEs (all Grades): Diarrhoea, % of patients: (33.3%)
  TRAEs (all Grades): Diarrhoea, patients: 1
  TRAEs (all Grades): Dyspepsia, patients: 0
  TRAEs (all Grades): Eructation, patients: 0
  TRAEs (all Grades): Fatigue, patients: 0
  TRAEs (all Grades): Headache, % of patients: (33.3%)
  TRAEs (all Grades): Headache, patients: 1
  TRAEs (all Grades): Lipase increased, patients: 0
  TRAEs (all Grades): Myalgia, patients: 0
  TRAEs (all Grades): Nausea, % of patients: (33.3%)
  TRAEs (all Grades): Nausea, patients: 1
  TRAEs (all Grades): Peripheral sensory neuropathy, patients: 0
  TRAEs (all Grades): Phlebitis, patients: 0
  TRAEs (all Grades): Pneumonitis, patients: 0
  TRAEs (all Grades): Pruritus, patients: 0
  TRAEs (all Grades): Rash maculo-papular, patients: 0
  TRAEs (all Grades): Tumor pain, patients: 0
[3]; APG-1387 45 mg
  # of pts discontinued treatment: Adverse Event: 1
  # of pts discontinued treatment: Clinical progression: 1
  # of pts discontinued treatment: Disease progression: 8
  # of pts discontinued treatment: Lack of efficacy: 1
  TRAEs (all Grades): Aspartate aminotransferase increased, % of patients: (7.7%)
  TRAEs (all Grades): Aspartate aminotransferase increased, patients: 1
  TRAEs (all Grades): Bell's palsy, % of patients: (7.7%)
  TRAEs (all Grades): Bell's palsy, patients: 1
  TRAEs (all Grades): Blood bilirubin increased, patients: 0
  TRAEs (all Grades): Decreased appetite, % of patients: (15.4%)
  TRAEs (all Grades): Decreased appetite, patients: 2
  TRAEs (all Grades): Dehydration, % of patients: (7.7%)
  TRAEs (all Grades): Dehydration, patients: 1
  TRAEs (all Grades): Diarrhoea, patients: 0
  TRAEs (all Grades): Dyspepsia, % of patients: (7.7%)
  TRAEs (all Grades): Dyspepsia, patients: 1
  TRAEs (all Grades): Eructation, patients: 0
  TRAEs (all Grades): Fatigue, % of patients: (23.1%)
  TRAEs (all Grades): Fatigue, patients: 3

Reference: patent publication US12186304B2, “Method for treating cancer by combination of IAP inhibitor and modulator of immune checkpoint molecule” (ASCENTAGE PHARMA (SUZHOU) CO., LTD., priority 2018, dated 2025)
